Measured values taken from ChEMBL document CHEMBL6177982, “Structural Optimization of Pyrazole Compounds as Hsp90 Regulators with Enhanced Antitumor Activity” (J Med Chem, 2025).
Active and inactive are the calls of the source. The calls are words filed in the database; no cut-off is given here.

Assays:
HCT-116 [1] = test: Antiproliferative activity against CDC37 knockout human HCT-116 cells assessed as inhibition of cell proliferation incubated for 72 hrs by MTT assay; format: functional, cell-based; details: for IC50: HCT-116, 72 h
HCT-116 [2] = test: Antiproliferative activity against human HCT-116 cells assessed as inhibition of cell proliferation incubated for 72 hrs by MTT assay; format: functional, cell-based; details: HCT-116, 72 h
[3] = Selectivity ratio of IC50 for antiproliferative activity against CDC37 knockout human HCT-116 cells to IC50 for antiproliferative activity against human HCT-116 cells; format: functional
[4] = target: Heat shock protein HSP 90-beta/Hsp90 co-chaperone Cdc37 (Homo sapiens) (UniProt P08238+Q16543); test: Inhibition of His-tagged HSP90(unknown origin)/GST-tagged CDC37 (unknown origin) protein-protein interaction at 100 uM preincubated with HSP90 for 1 hrs followed by CDC37 addition and measured after 1 hrs by HTRF assay relative to control; format: protein-complex assay
[5] = target: Heat shock protein HSP90 (Homo sapiens) (UniProt P07900+P08238); test: Induction of thermal stabilization of HSP90 in human HCT-116 cells at 10 uM at 53 to 55 degreeC by CETSA based Western blot analysis; format: cell-based
[6] = Permeability of compound at pH 7.4 incubated for 4 hrs by PAMPA based UV analysis; format: ADME; details: read-out: permeability
HT-29 = test: Antiproliferative activity against human HT-29 cells assessed as inhibition of cell proliferation incubated for 72 hrs by MTT assay; format: functional, cell-based; details: HT-29, 72 h
SK-BR-3 = test: Antiproliferative activity against human SK-BR-3 cells assessed as inhibition of cell proliferation incubated for 72 hrs by MTT assay; format: functional, cell-based; details: SK-BR-3, 72 h
MCF7 = test: Antiproliferative activity against human MCF7 cells assessed as inhibition of cell proliferation incubated for 72 hrs by MTT assay; format: functional, cell-based; details: MCF7, 72 h
HT-1080 = test: Antiproliferative activity against human HT-1080 cells assessed as inhibition of cell proliferation incubated for 72 hrs by MTT assay; format: functional, cell-based; details: HT-1080, 72 h
CT26 = test: Antiproliferative activity against mouse CT26 cells assessed as inhibition of cell proliferation incubated for 72 hrs by MTT assay; format: functional, cell-based; details: CT26, 72 h

| SMILES | IC50 (HCT-116 [1]) [µM] | IC50 (HCT-116 [2]) [µM] | inhibition [4] [%] | Ratio IC50 [3] | other results |
| --- | --- | --- | --- | --- | --- |
| NC(=O)C1CCCCN1C(=O)/C=C/c1cn(-c2ccccc2)nc1-c1ccco1 (stereo unspecified) | > 50 | 9.79 | 55.4 | >5 | – |
| NC(=O)C1CCCCN1C(=O)/C=C/c1cn(-c2ccccc2)nc1-c1cccc(Cl)c1 (stereo unspecified) | 28.2 | 9.17 | 48.3 | 3.1 | – |
| NC(=O)C1CCCCN1C(=O)/C=C/c1cn(-c2ccccc2)nc1-c1cncc(C(F)(F)F)c1 (stereo unspecified) | > 50 | > 50 | < 20 | – | – |
| NC(=O)C1CCCCN1C(=O)/C=C/c1cn(-c2ccccc2)nc1-c1cccc([N+](=O)[O-])c1 (stereo unspecified) | > 50 | > 50 | < 20 | – | – |
| Cc1cc(-c2nn(-c3ccccc3)cc2/C=C/C(=O)N2CCCCC2C(N)=O)ccc1F (stereo unspecified) | > 50 | 12.6 | 45.7 | <5 | – |
| NC(=O)C1CCCCN1C(=O)/C=C/c1cn(-c2ccccc2)nc1-c1cccc(F)c1 (stereo unspecified) | 42.2 | 14.2 | 45.6 | 3 | – |
| Cc1ccccc1-c1nn(-c2ccccc2)cc1/C=C/C(=O)N1CCCCC1C(N)=O (stereo unspecified) | 27.5 | 10.2 | 45.4 | 2.7 | – |
| NC(=O)C1CCCCN1C(=O)/C=C/c1cn(-c2ccccc2)nc1Cc1ccccc1 (stereo unspecified) | 42.2 | 18.2 | 38.9 | 2.3 | – |
| COc1cc(-c2nn(-c3ccccc3)cc2/C=C/C(=O)N2CCCCC2C(N)=O)ccc1Br (stereo unspecified) | 44.7 | 10.1 | 49.2 | 4.4 | – |
| NC(=O)C1CCCCN1C(=O)/C=C/c1cn(-c2ccccc2)nc1-c1ccc(Cl)cc1 (stereo unspecified) | 32.3 | 11.8 | 45.4 | 2.7 | – |
| NC(=O)C1CCCCN1C(=O)/C=C/c1cn(-c2ccccc2)nc1-c1cccs1 (stereo unspecified) | > 50 | 8.46 | 59 | >5 | – |
| Cc1ccc(-c2nn(-c3ccccc3)cc2/C=C/C(=O)N2CCCCC2C(N)=O)cc1C (stereo unspecified) | 25.1 | 7.83 | 62.9 | 3.2 | Papp at 4 h [6]: 23 ×10⁻⁶ cm/s; IC50 (HT-29): 10.2 µM; IC50 (SK-BR-3): 13.9 µM; IC50 (MCF7): 12.2 µM; IC50 (HT-1080): 14.8 µM; IC50 (CT26): 9.24 µM |
| COc1cc(-c2nn(-c3ccccc3)cc2/C=C/C(=O)N2CCCCC2C(N)=O)ccc1Cl (stereo unspecified) | > 50 | 11 | 43.3 | <5 | – |
| NC(=O)C1CCCCN1C(=O)/C=C/c1cn(-c2ccccc2)nc1-c1cccc(C(=O)O)c1 (stereo unspecified) | > 50 | > 50 | < 20 | – | – |
| NC(=O)C1CCCCN1C(=O)/C=C/c1cn(-c2ccccc2)nc1-c1ccccn1 (stereo unspecified) | > 100 | 7.11 | 69.5 | >10 | – |
| CCOC(=O)c1cccc(-c2nn(-c3ccccc3)cc2/C=C/C(=O)N2CCCCC2C(N)=O)c1 (stereo unspecified) | > 50 | > 50 | < 20 | – | – |
| N#Cc1cccc(-c2nn(-c3ccccc3)cc2/C=C/C(=O)N2CCCCC2C(N)=O)c1 (stereo unspecified) | > 50 | > 50 | < 20 | – | – |
| Cc1ccc(-c2nn(-c3ccccc3)cc2/C=C/C(=O)N2CCCCC2C(N)=O)cc1 (stereo unspecified) | 30.8 | 10.9 | 44.7 | 2.8 | – |
| Cc1cc(-c2nn(-c3ccccc3)cc2/C=C/C(=O)N2CCCCC2C(N)=O)ccc1Cl (stereo unspecified) | 42.7 | 10.6 | 46.9 | 4 | – |
| NC(=O)C1CCCCN1C(=O)/C=C/c1cn(-c2ccccc2)nc1-c1cccnc1Br (stereo unspecified) | > 50 | 11.8 | 42.9 | <5 | – |
| NC(=O)C1CCCCN1C(=O)/C=C/c1cn(-c2ccccc2)nc1-c1ccc2ccccc2c1 (stereo unspecified) | > 50 | > 50 | < 20 | – | – |

The next lines start with results.

| IC50 (HCT-116 [1]) [µM] | IC50 (HCT-116 [2]) [µM] | inhibition [4] [%] | SMILES | Ratio IC50 [3] | other results |
| --- | --- | --- | --- | --- | --- |
| > 50 | 1.28 | 89.2 | O=S(=O)(/C=C/c1cn(-c2ccccc2)nc1-c1cccnc1)c1ccc(Cl)cc1 | >50 | – |
| 46 | 12.4 | 58.9 | CN(C)C(=O)/C=C/c1cn(-c2ccccc2)nc1-c1cccnc1 | 3.7 | – |
| > 50 | 4.23 | 83.2 | Cc1cccc(S(=O)(=O)/C=C/c2cn(-c3ccccc3)nc2-c2cccnc2)c1 | >10 | – |
| > 50 | 2.55 | 87.6 | Cc1ccccc1S(=O)(=O)/C=C/c1cn(-c2ccccc2)nc1-c1cccnc1 | >25 | – |
| 48.1 | 9.26 | 59.8 | CCCN(C)C(=O)/C=C/c1cn(-c2ccccc2)nc1-c1cccnc1 | 5.2 | – |
| > 50 | > 50 | – | O=S(=O)(CCc1cn(-c2ccccc2)nc1-c1cccnc1)c1ccccc1 | – | Activity [5]: inactive |
| 49.9 | 10.3 | 60.2 | CCN(CC)C(=O)/C=C/c1cn(-c2ccccc2)nc1-c1cccnc1 | 4.8 | – |
| 46.3 | 9.04 | 63.6 | CCCN(CCC)C(=O)/C=C/c1cn(-c2ccccc2)nc1-c1cccnc1 | 5.1 | – |
| > 100 | 6.12 | 74.4 | NC(=O)C1CCCCN1C(=O)/C=C/c1cn(-c2ccccc2)nc1-c1cccnc1 (stereo unspecified) | >10 | – |
| > 100 | 8.11 | 70.4 | NC(=O)C1CCCCN1C(=O)/C=C/c1cn(-c2ccccc2)nc1-c1ccncc1 (stereo unspecified) | >10 | – |
| 28.8 | 10 | 46.4 | NC(=O)C1CCCCN1C(=O)/C=C/c1cn(-c2ccccc2)nc1-c1ccccc1 (stereo unspecified) | 2.8 | – |
| 44.5 | 12.2 | 50.2 | NC(=O)C1CCCCN1C(=O)/C=C/c1cn(-c2ccccc2)nc1-c1cccc(Br)c1 (stereo unspecified) | 3.6 | – |
| > 100 | 9.18 | 72.5 | NC(=O)C1CCCCN1C(=O)/C=C/c1cn(-c2ccccc2)nc1-c1cncc(Br)c1 (stereo unspecified) | >10 | – |
| > 50 | 8.11 | 68.8 | O=C(/C=C/c1cn(-c2ccccc2)nc1-c1cccnc1)N1CCCCC1 | >5 | – |
| > 50 | 10.3 | 67.8 | COc1cccc(-c2nn(-c3ccccc3)cc2/C=C/C(=O)N2CCCCC2C(N)=O)c1 (stereo unspecified) | >5 | – |
| > 50 | 4.77 | 85.8 | Cc1ccc(S(=O)(=O)/C=C/c2cn(-c3ccccc3)nc2-c2cccnc2)cc1 | >10 | – |
| > 50 | 12.5 | 45.7 | COc1ncccc1-c1nn(-c2ccccc2)cc1/C=C/C(=O)N1CCCCC1C(N)=O (stereo unspecified) | <5 | – |
| > 50 | 8.48 | 65.9 | O=C(/C=C/c1cn(-c2ccccc2)nc1-c1cccnc1)N1CCCC1 | >5 | – |
| > 100 | 8.98 | 70.9 | COc1cncc(-c2nn(-c3ccccc3)cc2/C=C/C(=O)N2CCCCC2C(N)=O)c1 (stereo unspecified) | >10 | – |
| 35 | 8.12 | 52.9 | Cc1cccc(-c2nn(-c3ccccc3)cc2/C=C/C(=O)N2CCCCC2C(N)=O)c1 (stereo unspecified) | 4.3 | – |
| > 50 | 9.11 | 68.3 | NC(=O)C1CCCCN1C(=O)/C=C/c1cn(-c2ccccc2)nc1-c1cccc(N)c1 (stereo unspecified) | >5 | – |
| – | 7.17 | 72.5 | O=C(/C=C/c1cn(-c2ccccc2)nc1-c1cccnc1)N1CCCCCC1 | >20 | Activity (HCT-116 [1]): inactive |
